Patent US9006173B2, “Microcystins as agents for treatment of cancer” (priority 2006, dated 2015)
Read-outs that look alike come from different tables or passages of the source. Numbered stars: 1 amine (or outer) side, 2 acyl side, 3 side chain; on linkers, the order of the positions; unused ones are H or OH. Bridge positions count the residues as written; N and C are the ends. Square brackets hold non-standard residues; d marks the D form. Peptide text beside a SMILES is read from it. Adda = CO[C@@H](Cc1ccccc1)[C@@H](C)/C=C(C)/C=C/[C@H](N[*:1])[C@H](C)C(=O)[*:2]; dAsp(3S-Me) = C[C@H](C(=O)[*:3])[C@@H](N[*:1])C(=O)[*:2]; d(γGlu) = O=C(O)[C@@H](CCC(=O)[*:2])N[*:1]; NMeDha = C=C(NC)C(=O)O

Legend:
[1] = tested on: pIRESneo2 (control plasmid) transfected HeLa cells; experiment: cells; assay type: cell-based
[2] = tested on: OATP1B3-transfected HeLa cells
[3] = tested on: total phosphatase activity in OATP1B3-transfected HeLa cells; assay type: cell-based
PP2A = PP2A (Homo sapiens, UniProt P67775); conditions: cited from earlier work
PP1 = PP1 (Homo sapiens, UniProt P62136); conditions: read-out: Reported Ki PP1; cited from earlier work
[4] = tested on: OATP1B1-expressing HeLa xenografts; set-up: species or system athymic nude mice; conditions: mouse, in vivo, ip
[5] = tested on: OATP1B1 transfected HeLa cells; assay type: cell-based
[6] = mouse, in vivo; cited from earlier work
[7] = tested on: HeLa cells transfected with pIRESneo2; assay type: cell-based
[8] = tested on: total phosphatase activity in OATP1B1-transfected HeLa cells; assay type: cell-based
[9] = tested on: pIRESneo2 transfected HeLa cells; assay type: cell-based
[10] = set-up: species or system athymic nude mice; conditions: mouse, in vivo, ip
[11] = tested on: OATP1B1-transfected HeLa cells
OATP1B3 = experiment: in vitro; conditions: human
OATP1B1 = experiment: in vitro; conditions: human
purified PP1 = purified PP1 (Oryctolagus cuniculus, UniProt P62139); experiment: biochemical
purified PP2A = target: T1, purified PP2A (Homo sapiens, UniProt P67775); experiment: biochemical; conditions: [33P]-MyBP substrate, 10 min pre-incubation, mean±SD; read-out: Enzyme Inhibition PP2A IC50
T1 construct: purchased Upstate Cell Signaling Solutions, NY

[12] = read-out: Growth Inhibition pIRESneo2 IC50
[13] = read-out: Growth Inhibition OATP1B3 IC50
[14] = read-out: Growth inhibition: toxicity not reached / no cytotoxicity up to stated concentration in control cells
[15] = read-out: Growth Inhibition OATP1B1 IC50

Sequence of PP2A (P67775 whole entry): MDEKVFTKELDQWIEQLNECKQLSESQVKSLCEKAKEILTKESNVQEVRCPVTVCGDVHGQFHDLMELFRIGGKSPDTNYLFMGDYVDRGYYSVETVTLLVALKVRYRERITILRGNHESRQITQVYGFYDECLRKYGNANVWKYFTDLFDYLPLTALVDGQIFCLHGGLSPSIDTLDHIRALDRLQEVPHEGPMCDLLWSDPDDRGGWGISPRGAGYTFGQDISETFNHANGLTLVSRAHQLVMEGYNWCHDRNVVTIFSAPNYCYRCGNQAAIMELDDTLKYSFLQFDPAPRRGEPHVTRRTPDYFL
Sequence of purified PP1 (P62139 whole entry): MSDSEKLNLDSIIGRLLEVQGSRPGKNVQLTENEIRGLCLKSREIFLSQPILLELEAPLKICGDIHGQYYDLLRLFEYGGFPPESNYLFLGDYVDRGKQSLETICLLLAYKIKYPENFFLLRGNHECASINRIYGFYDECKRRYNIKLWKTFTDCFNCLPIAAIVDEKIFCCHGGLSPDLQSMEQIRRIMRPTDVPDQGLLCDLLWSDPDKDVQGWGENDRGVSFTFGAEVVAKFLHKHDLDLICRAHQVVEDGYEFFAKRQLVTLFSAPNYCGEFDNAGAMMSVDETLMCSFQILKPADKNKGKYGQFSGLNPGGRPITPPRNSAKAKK
Sequence of PP1 (P62136 whole entry): as the sequence (P62139 whole entry) above
T1 sequence (P67775 whole entry): as the sequence (P67775 whole entry) above
T1 sequence (P30153 2-589, further chain): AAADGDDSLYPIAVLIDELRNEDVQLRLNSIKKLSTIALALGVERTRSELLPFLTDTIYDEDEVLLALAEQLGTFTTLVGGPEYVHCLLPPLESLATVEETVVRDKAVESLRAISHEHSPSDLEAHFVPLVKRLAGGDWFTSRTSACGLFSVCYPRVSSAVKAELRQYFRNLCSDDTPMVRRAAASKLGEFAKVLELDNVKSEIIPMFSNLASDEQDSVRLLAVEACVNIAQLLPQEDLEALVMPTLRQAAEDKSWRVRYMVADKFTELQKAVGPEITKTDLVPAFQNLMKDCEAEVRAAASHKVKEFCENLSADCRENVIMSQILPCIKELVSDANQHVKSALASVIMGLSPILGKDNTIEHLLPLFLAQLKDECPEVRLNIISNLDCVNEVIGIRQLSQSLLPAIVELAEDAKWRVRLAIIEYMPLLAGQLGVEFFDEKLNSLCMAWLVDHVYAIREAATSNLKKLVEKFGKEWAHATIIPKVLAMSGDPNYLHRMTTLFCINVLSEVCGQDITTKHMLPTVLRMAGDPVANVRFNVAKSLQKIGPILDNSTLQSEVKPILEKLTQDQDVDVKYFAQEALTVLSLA

SMILES: C=C1C(=O)N[C@H](C)C(=O)N[C@@H](CC(C)C)C(=O)N[C@@H](C(=O)O)[C@H](C)C(=O)N[C@@H](Cc2ccccc2)C(=O)N[C@@H](/C=C/C(C)=C/[C@H](C)[C@H](Cc2ccccc2)OC)[C@H](C)C(=O)N[C@@H](C(=O)O)CCC(=O)N1C [Microcystin LF, microcystin LF] (F[Adda][d(γGlu)][NMeDha][dA]L[dAsp(3S-Me)]-OH; lactam N-7)
- IC50 [1, 12]: > 1000 nM
- IC50 [2, 13]: 0.9 ± 0.9 nM
- Effect on total phosphatase activity [3]: no discernable effect

SMILES: C=C1C(=O)N[C@H](C)C(=O)N[C@@H](CC(C)C)C(=O)N[C@@H](C(=O)O)[C@H](C)C(=O)N[C@@H](CCCNC(=N)N)C(=O)N[C@@H](/C=C/C(C)=C/[C@H](C)[C@H](Cc2ccccc2)OC)[C@H](C)C(=O)N[C@@H](C(=O)O)CCC(=O)N1C [Microcystin LR, microcystin LR] (R[Adda][d(γGlu)][NMeDha][dA]L[dAsp(3S-Me)]-OH; lactam N-7)
- Ki (PP2A; read-out: Reported Ki PP2A): 0.01 to 2 nM
- Ki (PP1): 0.06 to 6 nM
- Average tumor volume, % of control [4]: 49 % of control
- Cell and nuclear morphology changes [5]: membrane blebbing
- Share of total dose accumulating in the liver [6]: 70%
- Clonogenic assay toxicity in vector alone cells [7]: no toxicity
- IC50 [1, 12]: > 10000 nM
- IC50 [1, 14]: > 10000 nM
- IC50 [2, 13]: 39 nM
- IC50 ([2]; read-out: Growth inhibition IC50 in presence of BSP, OATP1B3): ~5000 nM
- Decrease of total phosphatase activity [8]: approximately 30%
- Cell and nuclear morphology changes [9]: no changes in cellular morphology
- Body weight day 0, daily cohort [10]: 22.8±2.7 grams
- Body weight day 0, every other day cohort [10]: 21.6±0.8 grams
- Body weight day 18, daily cohort [10]: 19.0±1.2 grams
- Body weight day 18, every other day cohort [10]: 22.3±2.4 grams
- Growth inhibition activity after 1 hour exposure [11]: less active
- IC50 [11, 15]: 5 nM
- IC50 ([11]; read-out: Growth inhibition IC50 in presence of BSP, OATP1B1): ~5000 nM

SMILES: C=C1C(=O)N[C@H](C)C(=O)N[C@@H](CC(C)C)C(=O)N[C@@H](C(=O)O)[C@H](C)C(=O)N[C@@H](Cc2c[nH]c3ccccc23)C(=O)N[C@@H](/C=C/C(C)=C/[C@H](C)[C@H](Cc2ccccc2)OC)[C@H](C)C(=O)N[C@@H](C(=O)O)CCC(=O)N1C [Microcystin LW, microcystin LW] (W[Adda][d(γGlu)][NMeDha][dA]L[dAsp(3S-Me)]-OH; lactam N-7)
- IC50 [1, 12]: > 1000 nM
- IC50 [2, 13]: 0.5 ± 0.4 nM
- Effect on total phosphatase activity [3]: no discernable effect

SMILES: C=C1C(=O)N[C@H](C)C(=O)N[C@@H](CCCNC(=N)N)C(=O)N[C@@H](C(=O)O)[C@H](C)C(=O)N[C@@H](CCCNC(=N)N)C(=O)N[C@@H](/C=C/C(C)=C/[C@H](C)[C@H](Cc2ccccc2)OC)[C@H](C)C(=O)N[C@@H](C(=O)O)CCC(=O)N1C [Microcystin RR, microcystin RR] (R[Adda][d(γGlu)][NMeDha][dA]R[dAsp(3S-Me)]-OH; lactam N-7)
- IC50 [1, 12]: > 10000 nM
- IC50 [1, 14]: > 10000 nM
- IC50 ([2]; read-out: Growth inhibition IC50 OATP1B3): 580 ± 400 nM
- IC50 ([11]; read-out: Growth inhibition IC50 OATP1B1): 3800 ± 2300 nM
- Decrease of total phosphatase activity [3]: 90%

SMILES: C=C1C(=O)N[C@H](C)C(=O)N[C@@H](Cc2ccc(O)cc2)C(=O)N[C@@H](C(=O)O)[C@H](C)C(=O)N[C@@H](CCCNC(=N)N)C(=O)N[C@@H](/C=C/C(C)=C/[C@H](C)[C@H](Cc2ccccc2)OC)[C@H](C)C(=O)N[C@@H](C(=O)O)CCC(=O)N1C [Microcystin YR, microcystin YR] (R[Adda][d(γGlu)][NMeDha][dA]Y[dAsp(3S-Me)]-OH; lactam N-7)
- IC50 [1, 12]: > 1000 nM
- IC50 [2, 13]: 45 ± 30 nM
- IC50 [11, 15]: 90 ± 20 nM

SMILES: C=C1[C@@H](O)[C@@H]2O[C@]3(CC[C@H](/C=C/[C@@H](C)[C@@H]4CC(C)=C[C@@]5(O[C@H](C[C@@](C)(O)C(=O)O)CC[C@H]5O)O4)O3)CC[C@H]2O[C@@H]1[C@@H](O)C[C@H](C)[C@H]1O[C@@]2(CCCCO2)CC[C@H]1C [Okadaic acid]
- IC50 (PP2A; literature (18), read-out: Reported IC50 PP2A): 15 to 70 nM
- IC50 (OATP1B3): 3 ± 1.2 nM
- IC50 (OATP1B1): 2.2 ± 0.6 nM
- IC50 (purified PP1): 90 ± 17 nM
- IC50 ([1]; Homo sapiens, HeLa, 72 h exposure, SRB dye assay, mean±SD, read-out: Growth Inhibition pIRESneo2 IC50): 7.8 ± 1.5 nM
- IC50 (purified PP2A): 0.4 ± 0.18 nM
